Source: patent US10821079B2, “PKC activators and combinations thereof” (Cognitive Research Enterprises, Inc., priority 2011, dated 2020)
Values belong to the molecule of their own block, whether it stands above or below them.

Key:
[1] = target: PKCα (Homo sapiens, UniProt P17252); experiment: Activation of purified PKC isozymes, radiometric: PKC-α; assay type: biochemical
Procedure: To measure PKC activity, 10 μg of protein from either cytosol or membrane was incubated for 15 min at 37° C. in the presence of 10 μM histones, 4.89 mM CaCl2, 1.2 μg/μl phosphatidyl-L-serine, 0.18 μg/μl 1,2-dioctanoyl-sn-glycerol, 10 mM MgCl2, 20 mM HEPES (pH 7.4), 0.8 mM EDTA, 4 mM EGTA, 4% glycerol, 8 μg/ml aprotinin, 8 μg/ml leupeptin, 2 mM benzamidine, and 0.5 μCi of [γ-^32P]ATP. [^32P]Phosphoprotein formation was measured by adsorption onto phosphocellulose as described previously. See Nelson et al. (2009) J Biol Chem 284, 34514-34521. For measurements of activation by RA, PKC activity was measured in the absence of diacylglycerol (DAG) and phosphatidylserine, as described by Nelson et al. (2009) J Biol Chem 284, 34514-34521. PKC-δ and PKC-ε were measured in the absence of added EGTA and CaCl^2, as described by Kanno et al. (2006) J Lipid Res 47, 1146-1156. The enzyme was provided as a purified isozyme for in vitro experiments.
(§1) To measure PKC, 10 μl of cell homogenate or purified PKC isoform was incubated for 15 min at 37° C. in the presence of 10 μM histones, 4.89 mM CaCl2, 1.2 μg/μl phosphatidyl-L-serine, 0.18 μg/μl 1,2-dioctanoyl-sn-glycerol, 10 mM MgCl2, 20 mM HEPES (pH 7.4), 0.8 mM EDTA, 4 mM EGTA, 4% glycerol, 8 μg/ml aprotinin, 8 μg/ml leupeptin, and 2 mM benzamidine. [γ32P]ATP (0.5 μCi) was added and 32P-phosphoprotein formation was measured by adsorption onto phosphocellulose as described previously. See Nelson et al., J. Neurochemistry, 1995, 65: 2350-2357.
(§2) PKC activity of each compound was measured in the absence of diacylglycerol and phosphatidylserine and PKC-δ and PKC-ε were measured in the absence of added EGTA and CaCl2, as described by Kanno et al., J. Lipid Res., 2006, 47: 1146-1156. Low concentrations of Ca^2+ were needed because high Ca^2+ can interact with the PKC phosphatidylserine binding site and prevents activation. […] To determine their PKC isoform specificity, the compounds were pre-incubated with purified isoforms of PKC for five minutes and the PKC activity was measured radiometrically.
(§3) The activation and PKC isozyme specificity of DCPLA-ethyl ester was measured following the procedures in Example 1(B) and (C), except that 9 ng of the purified isozyme was used and it was pre-incubated for 5 minutes at room temperature (FIG. 3). PKC-ε activation by DCPLA-tert-butyl ester and DCPLA-retinyl ester was measured in the same manner as DCPLA-ethyl ester (FIG. 3).

[2] = target: T1, PKC-ε (Homo sapiens, UniProt Q02156); experiment: Activation of purified PKC isozymes, radiometric: PKC-ε; assay type: biochemical; settings: for Specificity ε/α: Activation of PKC-ε ÷ activation or inhibition of PKCα at 3 × EC50
T1 sequence (Q02156 1-737): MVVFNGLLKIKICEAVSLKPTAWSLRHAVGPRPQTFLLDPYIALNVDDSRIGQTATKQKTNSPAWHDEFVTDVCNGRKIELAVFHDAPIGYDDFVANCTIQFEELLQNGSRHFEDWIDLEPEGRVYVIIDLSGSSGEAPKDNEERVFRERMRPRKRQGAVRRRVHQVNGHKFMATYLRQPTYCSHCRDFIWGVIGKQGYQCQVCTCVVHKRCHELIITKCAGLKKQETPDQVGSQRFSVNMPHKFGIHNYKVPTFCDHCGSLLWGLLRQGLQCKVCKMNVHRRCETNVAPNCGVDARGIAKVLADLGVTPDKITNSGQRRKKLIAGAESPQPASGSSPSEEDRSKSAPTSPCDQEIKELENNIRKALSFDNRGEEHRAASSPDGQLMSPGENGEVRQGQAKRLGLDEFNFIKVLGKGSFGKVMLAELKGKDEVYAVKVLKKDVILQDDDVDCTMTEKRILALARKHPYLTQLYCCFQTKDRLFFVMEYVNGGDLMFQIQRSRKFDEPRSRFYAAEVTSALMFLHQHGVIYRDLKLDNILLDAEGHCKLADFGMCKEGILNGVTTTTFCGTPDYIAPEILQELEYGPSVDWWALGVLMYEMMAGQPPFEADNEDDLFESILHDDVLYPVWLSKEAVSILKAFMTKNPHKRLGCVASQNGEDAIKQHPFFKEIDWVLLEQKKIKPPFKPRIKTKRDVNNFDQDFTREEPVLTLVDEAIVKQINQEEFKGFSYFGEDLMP
Procedure: as §1, §2, §3
The EC50 values, PKC specificity, and activation for a select number of DCPLA esters was determined (see Table 1). EC50 values were determined by measuring the lowest concentration that activates by 50% of maximum activation. […] The specificity and activation of PKC by the various esters of DCPLA were calculated from the measurements of activation of PKC isozymes.

[3] = test system: phosphatidylserine (C2) binding site; experiment: 3H-DCPLA-ME binding to rat brain slices with competitors, film autoradiography
Procedure: To determine the binding site of DCPLA-ME, ^3H-DCPLA-ME was incubated with rat brain slices in the absence and presence of known C1 and C2 competitors. More specifically, rat brain sections were fixed with formaldehyde, sliced, and incubated with (1) ^3H-DCPLA-ME alone; (2) ^3H-DCPLA-ME with DCPLA; (3) ^3H-DCPLA-ME with Phorbol ester; or (4) ^3H-DCPLA-ME and Bryostatin 1. After incubation, the slices were washed with a buffer made of 130 mM NaCl, 5 mM MgCl, 5 mM KCl, 1 mM EGTA, and 0.1% bovine serum albumin in 10 mM HEPES-NaOH, pH 7.4, dried, and analyzed with film-autoradiography.

[4] = test system: rat primary hippocampal neurons; experiment: Neurotoxic effect of Aβ1-42 assemblies, MTT viability; assay type: cell-based; settings: 20 hr
Procedure: Viability of cells was measured by MTT assay. MTT (3-(4,5-Dimethylthiazol-2-yl)-2,5-diphenyltetrazolium bromide) is a tetrazolium salt that is cleaved to formazan by the succinate dehydrogenase, which is only active in viable cells. After solubilization of the formazan, the amount of dye can be quantified with a microplate reader at 570 nm along with a reference of 630 nm. For MTT assay, 5×104 primary rat hippocampal neurons from 18-day-old embryonic Sprague-Dawley rat brains were plated on each well of 24-well plates coated with poly-D-lysine. After treatment, the cells were washed with 1×PBS and were incubated with 200 μl of 1 mg/ml MTT solution (Sigma, USA) at 37° C. for 2 hr. Then the MTT-solution was removed and the cells were lysed with 200 μl isopropanol containing 0.04 M HCl and 160 mM NaOH for 10 min. Finally, the reading was done at 570 nm and 630 nm. All the samples were done in triplicates and the data was represented as the percentage of control.
To assess the neurotoxic effect of different sized oligomers, rat primary hippocampal neurons were treated with variable concentrations of these Aβ1-42 species for 20 hr. Viability of the treated cells was compared to untreated cells using the MTT assay.

Molecule: CCCCC/C=C\C/C=C\CCCCCCCC(=O)O[C@H]1CC[C@@]2(C)C(=CC[C@H]3[C@@H]4CC[C@H]([C@H](C)CCCC(C)C)[C@@]4(C)CC[C@@H]32)C1 [Cholesteryl linoleate, cholesteryl linoleate]
PKC-α activation [1]: 20%
PKC-ε activation (in words) [2]: little or no activation

3H-DCPLA-ME binding, 30 nM competitor [3]: 86%
3H-DCPLA-ME binding, 1 μM competitor [3]: 35%
Specificity ε/α [2]: 7.4
Molecule: CCCCCC1CC1CC1CC1CCCCCCCC(=O)O (stereo not shown) [DCPLA, cyclopropanated linoleic acid]

PKC-ε activation at peak [2]: 140 % of control
concentration of maximal activation [2]: 10 nM
Specificity ε/α [2]: 8.1
Molecule: CCCCCCCCC1CC1CCCCCCCCOC(=O)CCCCCCCC1CC1CC1CC1CCCCC (stereo not shown) [DCPLA-cyclopropanated oleyl ester]

Specificity ε/α [2]: 4.2
Molecule: CCCCCC1CC1CC1CC1CCCCCCCC(=O)OCC (stereo not shown) [DCPLA-ethyl ester]

Molecule: CCCCCC1CC1CC1CC1CCCCCCCC(=O)OC/C=C(C)/C=C/C=C(C)/C=C/C1=C(C)CCCC1(C)C (stereo not shown) [DCPLA-retinyl ester]
EC50 ([2]; lowest concentration that activates by 50% of maximum activation): 10 nM
Activation ([2]; of PKCε at maximum): 129 % of control

Molecule: CCCC(=O)O[C@@H]1[C@@H](C)[C@@]2(O)[C@@H](C=C(CO)C[C@]3(O)C(=O)C(C)=C[C@@H]23)[C@@H]2C(C)(C)[C@]12OC(=O)CCC [Phorbol ester (PdBu)]
3H-DCPLA-ME binding, 30 nM competitor [3]: 100%
3H-DCPLA-ME binding, 1 μM competitor [3]: 81%

Molecule: oAβ <100 kDa: filtrate from the 100 kDa filtration of the ASPD preparation
Viability of primary neuron (Mean ± SEM) ([4]; 50 nM): 76.01 ± 5.54 % of control
Viability of primary neuron (Mean ± SEM) ([4]; 500 nM): 62.94 ± 9.53 % of control
Viability of primary neuron (Mean ± SEM) ([4]; 1000 nM): 53.52 ± 2.43 % of control
